Test results: article PMC8588310, “Identification and Preliminary Structure-Activity Relationship Studies of 1,5-Dihydrobenzo[e][1,4]oxazepin-2(3H)-ones That Induce Differentiation of Acute Myeloid Leukemia Cells In Vitro” (Molecules, 2021)

Columns and labels:
[1] = Semi-thermodynamic aqueous solubility; type: physicochemical; conditions: aqueous (buffer or water not specified), thermodynamic from solid
Description: Determination of semi-thermodynamic solubility, metabolic stability in S9 fraction, Caco-2 permeability and PPB were performed by Cyprotex Ltd. (www.cyprotex.com, accessed on 22 October 2021) using their standard assays and as described on their website.

HL-60 cells = test: CD11b expression assay by flow cytometry in HL-60 cells; type: cell-based, human; conditions: for Activity in the CD11b assay / EC50: HL-60 cells; for Activity in the CD11b assay: concentration-response; for EC50: Homo sapiens, HL-60, 96 h, 4-day (96 h) treatment, CD11b upregulation, read-out: EC50 [nM], %CD11b response in HL60 cells; for LipE (lipophilic efficiency): LipE = -LogEC50-cLogP, EC50 of CD11b assay in HL-60
Description: Cells were treated with 1000 structurally diverse small molecules selected from a commercial library. A single point testing concentration of 10 µM was used. After 4 days, cells were stained with a CD11b antibody and analysed using flow cytometry. Compounds upregulating CD11b expression greater than 10% in at least three of the cell lines were considered as potential hits. Hit confirmation was undertaken as follows: first, the hit was re-tested at 10 µM both with the CD11b antibody and an isotype control to account for nonspecific binding. Secondly, the effect of the hit on cell proliferation and viability was evaluated through staining with DAPI to evaluate the number of dead cells, and with acridine orange to detect total cell numbers. Thirdly, the induction of differentiation caused by the compounds was confirmed through morphology assessment with Giemsa staining. Finally, the molecule was resynthesised and fully characterised to confirm structural authenticity. This fresh sample was then retested in the CD11b assay to generate a concentration-response curve. The study of proliferation and morphology was performed on a panel of six cell lines: HL-60, THP-1, OCI-AML3, KG-1, Kasumi-1 and ME-1.
Thus, structure-activity relationship studies were initiated, where the potency of the new analogues was evaluated through concentration-response testing using the CD11b assay in HL-60 cells. Lipophilic efficiency (LipE), which also accounts for lipophilicity, was also used to compare the quality of the analogues. Even though multiple parameters can influence activity in a cell-based assay, LipE is a useful guide to compare analogues.
PE mouse-anti-human-CD11b/Mac-1 (ICRF44, Cat 555388) and PE-mouse-IgG1-κ-isotype control (MOPC-21, Cat 555749) were purchased from BD Bioscience. Cells were suspended in 100 μL growth media (RPMI + 10% FBS + 1% L-glutamine) at a density of 2 × 10^4 cells/well of a V-bottom 96 well plate (Corning, Cat 3894) and grown for 96 h in the presence of compound at the required concentration. After 96 h, the plate was centrifuged, media was removed, and cells were resuspended in 50 µL of blocking buffer (IMDM, no phenol red + 10% FBS) containing 2.5 μL of either CD11b or isotype control antibody and incubated on ice in the dark for 20 min. Cells were washed twice in 200 μL of staining buffer (IMDM, no phenol red + 1% FBS) before being resuspended in 200 μL of staining buffer containing 1 μg/mL of DAPI to help identify dead cells. Flow cytometry data were collected on an Attune NxT and analysed using the Attune NxT software (Life Technologies).

Row | SMILES | solubility thermodynamic [1] [µM] | Activity in the CD11b assay (HL-60 cells) | EC50 (HL-60 cells) [nM] | LipE (lipophilic efficiency) (HL-60 cells) | Decrease in potency compared to OXS007002 (HL-60 cells; CD11b EC50 in HL-60, vs OXS007002) [fold]
1 | CS(=O)(=O)Nc1cccc(-c2ccc3c(c2)NC(=O)COC3)c1 [Compound 6, N-(3-(2-Oxo-1,2,3,5-tetrahydrobenzo[e][1,4]oxazepin-8-yl)phenyl)methanesulfonamide] | > 200 | completely inactive | > 10000 |  | 
2 | CC(C)N1C(=O)COCc2ccc(-c3ccc(NS(C)(=O)=O)cc3)cc21 [Compound 26, N-(4-(1-Isopropyl-2-oxo-1,2,3,5-tetrahydrobenzo[e][1,4]oxazepin-8-yl)phenyl)methanesulfonamide] |  |  | > 30000 |  | 
3 | CC(C)N1C(=O)COCc2ccc(-c3cccc(S(C)(=N)=O)c3)cc21 (stereo not drawn) [Compound 27, 1-Isopropyl-8-(3-(S-methylsulfonimidoyl)phenyl)-1,5-dihydrobenzo[e][1,4]oxazepin-2(3H)-one] |  | removed the activity | > 30000 |  | 
4 | CC(C)N1C(=O)COCc2ccc(-c3cccc(N)c3)cc21 [Compound 29, 8-(3-Aminophenyl)-1-isopropyl-1,5-dihydrobenzo[e][1,4]oxazepin-2(3H)-one] |  |  | 3300 | 3.5 | 
5 | CC(C)N1C(=O)COCc2ccc(-c3cccc(N(C)C)c3)cc21 [Compound 30, 8-(3-(Dimethylamino)phenyl)-1-isopropyl-1,5-dihydrobenzo[e][1,4]oxazepin-2(3H)-one] |  |  | 12000 | 2.4 | 
6 | COc1cccc(-c2ccc3c(c2)N(C(C)C)C(=O)COC3)c1 [Compound 31, 1-Isopropyl-8-(3-methoxyphenyl)-1,5-dihydrobenzo[e][1,4]oxazepin-2(3H)-one] |  |  | > 10000 |  | 
7 | CC(C)N1C(=O)COCc2ccc(-c3cccc(C(=O)O)c3)cc21 [Compound 32, 3-(1-Isopropyl-2-oxo-1,2,3,5-tetrahydrobenzo[e][1,4]oxazepin-8-yl)benzoic acid] |  |  | > 30000 |  | 
8 | CCCS(=O)(=O)Nc1cccc(-c2ccc3c(c2)N(C(C)C)C(=O)COC3)c1 [Compound 33, N-(3-(1-Isopropyl-2-oxo-1,2,3,5-tetrahydrobenzo[e][1,4]oxazepin-8-yl)phenyl)propane-1-sulfonamide] |  |  | 6800 | 2.5 | 10
9 | CC(C)N1C(=O)COCc2ccc(-c3cccc(NS(=O)(=O)C(F)(F)F)c3)cc21 [Compound 34, 1,1,1-Trifluoro-N-(3-(1-isopropyl-2-oxo-1,2,3,5-tetrahydrobenzo[e][1,4]oxazepin-8-yl)phenyl)methanesulfonamide] |  |  | > 10000 |  | 
10 | COc1cc(NS(C)(=O)=O)cc(-c2ccc3c(c2)N(C(C)C)C(=O)COC3)c1 [Compound 38, N-(3-(1-Isopropyl-2-oxo-1,2,3,5-tetrahydrobenzo[e][1,4]oxazepin-8-yl)-5-methoxyphenyl)methanesulfonamide] |  |  | > 30000 |  | 
11 | CC(C)N1C(=O)COCc2ccc(-c3cncc(NS(C)(=O)=O)c3)cc21 [Compound 39, N-(5-(1-Isopropyl-2-oxo-1,2,3,5-tetrahydrobenzo[e][1,4]oxazepin-8-yl)pyridin-3-yl)methanesulfonamide] |  | abolished activity | > 30000 |  | 
12 | CC(C)N1C(=O)COCc2ccc(Oc3cccc(NS(C)(=O)=O)c3)cc21 [Compound 40, N-(3-((1-Isopropyl-2-oxo-1,2,3,5-tetrahydrobenzo[e][1,4]oxazepin-8-yl)oxy)phenyl)methanesulfonamide] |  | abolished activity | > 30000 |  | 
